Where two headings read alike, the source gives them in different places.
Tests used:
human 5-HT1A receptor = biological target: T1, human 5-HT1A receptor (Homo sapiens, UniProt P08908); experiment: 5-HT1A receptor binding ([3H]8-OH-DPAT, 5-HT1A.CHO cell membranes); details: for inhibition at 0.01 µM / inhibition at 1 µM: 0.5 h; for inhibition at 0.01 µM: read-out: 5-HT1A % @10 nM; for inhibition at 1 µM: read-out: 5-HT1A % @1000 nM
T1 construct: expressed in transfected cells
T1 sequence (P08908 1-422): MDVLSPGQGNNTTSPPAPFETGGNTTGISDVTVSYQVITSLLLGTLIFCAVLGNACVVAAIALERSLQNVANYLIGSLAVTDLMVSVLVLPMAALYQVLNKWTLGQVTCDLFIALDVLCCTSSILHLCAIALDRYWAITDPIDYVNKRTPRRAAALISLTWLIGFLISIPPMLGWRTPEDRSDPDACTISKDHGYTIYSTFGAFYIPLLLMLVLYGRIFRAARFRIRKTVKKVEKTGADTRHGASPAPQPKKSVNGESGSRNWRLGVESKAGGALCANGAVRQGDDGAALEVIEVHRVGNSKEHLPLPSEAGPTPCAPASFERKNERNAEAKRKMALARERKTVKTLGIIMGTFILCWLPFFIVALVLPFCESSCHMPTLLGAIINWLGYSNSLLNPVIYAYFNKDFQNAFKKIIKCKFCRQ
Procedure: (§1) The PCR cloning of the human 5-HT1A receptor subtype from a human genomic library has been described previously Chanda et al., Mol. Pharmacol., 43:516 (1993). A stable Chinese hamster ovary cell line expressing the human 5-HT1A receptor subtype (5-HT1A.CHO cells) was employed throughout this study. Cells were maintained in DMEM supplemented with 10% foetal calf serum, non-essential amino acids and penicillin/streptomycin.
Cells were grown to 95-100% confluency as a monolayer before membranes were harvested for binding studies. Cells were gently scraped from the culture plates, transferred to centrifuge tubes, and washed twice by centrifugation (2000 rpm for 10 min., 4° C.) in buffer (50 mM Tris; pH 7.5). The resulting pellets were aliquoted and placed at -80° C. On the day of assay, the cells were thawed on ice, and resuspended in buffer. Studies were conducted using [^3 H]8-OH-DPAT as the radioligand. The binding assay was performed in 96 well microtiter plates in a final total volume of 250 μL of buffer. Competition experiments were performed by using 7 concentrations of unlabelled drug and a final ligand concentration of 1.5 nM . Non-specific binding was determined in the presence of 10 μM 5HT. Saturation analysis was conducted by using [^3 H]8-OH-DPAT at concentrations ranging from 0.3-30 nM. Following a 30 minute incubation at room temperature, the reaction was terminated by the addition of ice cold buffer and rapid filtration using a M-96 Brandel Cell Harvester (Gaithersburg, Md.) through a GF/B filter presoaked for 30 minutes in 0.5% polyethyleneimine.

5-HT1A cloned receptor = biological target: T2, 5-HT1A cloned receptor (Homo sapiens, UniProt P08908); experiment: [35S]-GTPγS binding assay, 5-HT1A cloned receptor membranes; assay type: biochemical; details: maximum agonist response defined by excess 8-OH-DPAT
T2 construct: expressed in transfected cells
T2 sequence (P08908 1-422): T1 sequence (P08908 1-422)
Text: as §1
The [^35 S]-GTPγS binding assay was similar to that used by Lazareno and Birdsall, Br. J. Pharmacol. 109:1120 (1993). Briefly, 5-HT1A cloned receptor membrane fragments (as used for 5-HT1A receptor binding assays) were stored at -70° C. until needed. When needed, membranes were rapidly thawed, centrifuged at 40,000×g for 10 minutes and resuspended at 4° C. for 10 minutes in assay buffer ([…], 3 mM MgCl2, 100 mM NaCl, 1 mM EDTA, 10 uM GDP, […], pH 8.0). These membranes were then incubated for 30 min at 30° C. with [^35 S]GTPgS (1 nM) in the presence of vehicle, test compound (one to eight concentrations), or excess 8-OH-DPAT to define maximum agonist response. All reactions are terminated by the addition of ice cold Tris buffer followed by rapid filtration using a Tom Tech® filtration device to separate bound from free [^35 S]GTPgS. […] Bound radioactivity was counted and analyzed as above.

serotonin transporter = biological target: T3, serotonin transporter (Rattus norvegicus, UniProt P31652); experiment: serotonin transporter (ST) affinity, 3H-paroxetine binding in frontal cortical membranes; design: species or system male Sprague-Dawley rats
T3 construct: frontal cortical membranes prepared from male Sprague-Dawley rats; from tissue; host or cells: frontal cortical membranes of male Sprague-Dawley rats
Procedure: Briefly, frontal cortical membranes prepared from male Sprague-Dawley rats were incubated with ^3 H-paroxetine (0.1 nM) for 60 min at 25° C. All tubes also contained either vehicle, test compound (one to eight concentrations), or a saturating concentration of fluoxetine (10 μM) to define […]. All reactions are terminated by the addition of ice cold Tris buffer followed by rapid filtration using a Tom Tech filtration device to separate bound from free ^3 H-paroxetine.

T3 sequence (P31652 whole entry): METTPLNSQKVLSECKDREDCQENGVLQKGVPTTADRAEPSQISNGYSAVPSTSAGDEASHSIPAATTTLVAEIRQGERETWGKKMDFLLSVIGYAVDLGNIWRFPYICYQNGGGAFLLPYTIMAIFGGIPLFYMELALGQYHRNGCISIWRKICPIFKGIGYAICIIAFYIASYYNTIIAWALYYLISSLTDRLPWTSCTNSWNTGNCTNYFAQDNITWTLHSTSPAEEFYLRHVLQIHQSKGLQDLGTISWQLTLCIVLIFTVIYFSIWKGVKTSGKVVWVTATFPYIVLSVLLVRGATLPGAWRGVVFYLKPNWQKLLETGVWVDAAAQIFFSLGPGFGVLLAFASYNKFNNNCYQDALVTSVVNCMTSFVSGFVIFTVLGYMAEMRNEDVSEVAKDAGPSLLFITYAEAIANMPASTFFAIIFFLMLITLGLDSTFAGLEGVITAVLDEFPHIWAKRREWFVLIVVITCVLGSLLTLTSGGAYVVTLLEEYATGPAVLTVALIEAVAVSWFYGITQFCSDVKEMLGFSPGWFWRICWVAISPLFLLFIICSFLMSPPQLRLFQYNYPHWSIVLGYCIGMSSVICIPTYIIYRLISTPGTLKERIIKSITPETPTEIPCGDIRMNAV

Row | SMILES | inhibition at 0.01 µM (human 5-HT1A receptor) | inhibition at 1 µM (human 5-HT1A receptor) | other results
1 | COc1ccccc1OCCNCC1CCC(c2c[nH]c3ccc(C#N)cc23)CC1 (centres unmarked) [Example 10b, 3-(4-{[2-(Methoxy-phenoxy)-ethylamino]-methyl}-cyclohexyl)-1H-indole-5-carbonitrile] | 7% |  | 
2 | COc1ccccc1OCCNC[C@H]1CC[C@H](c2c[nH]c3ccc(F)cc32)CC1 [Example 10a, [(1,4-trans)-4-(5-Fluoro-1H-indol-3-yl)-cyclohexylmethyl]-[2-(2-methoxy-phenoxy)-ethyl]-amine] |  |  | Emax (5-HT1A cloned receptor): 60%; Ki (serotonin transporter): 7.33 nM; Ki (human 5-HT1A receptor): 26.8 nM
3 | OC1(CNCCOc2cccc3[nH]ccc23)CCC(c2c[nH]c3ccc(F)cc23)CC1 (centres unmarked) [Example 13, (1,4)-4-(5-Fluoro-1H-indol-3-yl)-1-{[2-(1H-indol-4-yloxy)-ethylamino]-methyl}-cyclohexanol] |  |  | Ki (human 5-HT1A receptor; [3H]8-OH-DPAT 1.5 nM, 30 minutes, room temperature, read-out: 5-HT1A (Ki)): 257 nM
4 | COc1cc(S(C)(=O)=O)c(F)cc1OCCN[C@H]1CC[C@H](c2c[nH]c3ccc(F)cc32)CC1 [Example 12, [(1,4-trans)-4-(5-Fluoro-1H-indol-3-yl)-cyclohexyl]-[2-(5-fluoro-4-methanesulfonyl-2-methoxy-phenoxy)-ethyl]-amine] | 0% |  | 

The next lines start with results.

Row | inhibition at 0.01 µM (human 5-HT1A receptor) | inhibition at 1 µM (human 5-HT1A receptor) | SMILES | other results
5 |  | 47% | Cn1cc([C@H]2CC[C@@H](NCCOc3cc(F)cc4c3OCCC4)CC2)c2cc(C#N)ccc21 [Example 5c, 3-{(1,4-cis)-4-[2-(6-Fluoro-chroman-8-yloxy)-ethylamino]-cyclohexyl}-1-methyl-1H-indole-5-carbonitrile] | 
6 |  | 49% | Fc1cc2c(c(OCCN[C@H]3CC[C@@H](c4c[nH]c5ccc(F)cc54)CC3)c1)OCCC2 [Example 5a, [2-(6-Fluoro-chroman-8-yloxy)-ethyl]-[(1,4-cis)-4-(5-fluoro-1H-indol-3-yl)-cyclohexyl]-amine] | 
7 |  | 49% | N#Cc1ccc2[nH]cc([C@H]3CC[C@@H](NCCOc4cc(F)cc5c4OCC5)CC3)c2c1 [Example 6a] | 
8 | 16% |  | COc1cc(F)ccc1OCCN[C@H]1CC[C@@H](c2c[nH]c3ccc(F)cc32)CC1 [Example 9a, [(1,4-cis)-4-(5-Fluoro-1H-indol-3-yl)-cyclohexyl]-[2-(4-fluoro-2-methoxy-phenoxy)-ethyl]-amine] | 
9 | 0% |  | COc1cc(F)c(F)cc1OCCN[C@H]1CC[C@@H](c2c[nH]c3ccc(F)cc32)CC1 [Example 11a, (1,4-cis)-[2-(4,5-Difluoro-2-methoxy-phenoxy)-ethyl]-[4-(5-fluoro-1H-indol-3-yl)-cyclohexyl]-amine] | 
